Data on seven compounds can be found in ChEMBL document CHEMBL1201862, “PubChem BioAssay data set” (2004).

Active and inactive are the calls of the source. A value given as a limit tells only on which side of the number the result lay.

In assay [1] the target is T1, Scavenger receptor class B member 1 (Mus musculus, UniProt Q61009).
T1 sequence (Q61009 whole entry): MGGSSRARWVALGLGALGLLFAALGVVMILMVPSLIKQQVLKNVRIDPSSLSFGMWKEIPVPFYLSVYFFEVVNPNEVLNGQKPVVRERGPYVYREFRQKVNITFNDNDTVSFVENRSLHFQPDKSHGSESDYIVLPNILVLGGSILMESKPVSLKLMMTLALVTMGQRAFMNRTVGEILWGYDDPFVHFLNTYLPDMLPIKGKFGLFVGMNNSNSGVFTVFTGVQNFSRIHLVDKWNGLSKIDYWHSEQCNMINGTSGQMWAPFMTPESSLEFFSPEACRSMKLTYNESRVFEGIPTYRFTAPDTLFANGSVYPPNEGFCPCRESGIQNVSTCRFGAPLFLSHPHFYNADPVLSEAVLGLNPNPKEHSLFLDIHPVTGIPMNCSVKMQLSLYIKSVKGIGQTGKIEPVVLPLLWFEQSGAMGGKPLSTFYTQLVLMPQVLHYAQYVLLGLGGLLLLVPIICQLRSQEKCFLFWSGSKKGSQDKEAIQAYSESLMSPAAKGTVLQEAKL
The assay is described as follows: inhibitors of SR-BI dependent HDL uptake, dose response, ldlA[mSR-BI] CHO cells, fluorescence plate reader, dry powder, set 9 (AID 623880). It counts as functional, cell-based.

In assay [2] the target is T1, Scavenger receptor class B member 1. The assay can be described thus: inhibitors of SR-BI-mediated HDL uptake, dose response, cell-based, ldlA[mSR-BI] CHO, DiI fluorescence, dry powder, set 10 (AID 624029). It counts as functional.
For assay [3], the target named is Protein Wnt-3a (Mus musculus, UniProt P27467). The assay is described as follows: SAR analysis of small molecule antagonists of Gli-SUFU in a Wnt3a luminescent reporter assay. In kind it is functional. (In general: A reporter such as luciferase makes a cellular process visible.)
The nature of assay [4]: Late stage counterscreen for inhibitors of Trypanosoma brucei methionyl tRNA synthetase (MetRS): Luminescence-based cell-based high throughput dose response assay to identify compounds that are cytotoxic to Jurkat human T lymphocyte cells. It counts as functional. (Counterscreens check selectivity or assay interference.)
The test system of assay [5] is HEK293. The assay can be described thus: HEK293T cell cytotoxicity, dose response, cytotoxicity control, ATP luminescence, cherry-pick samples (AID 687005).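 Also: cells exposed to compound for 48 hours.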 It counts as functional, cell-based. To be noted: Homo sapiens.
Assay [6] in a line: HEK293 Cytotoxicity Assay Measured in Cell-Based System Using Plate Reader - 7071-01_Inhibitor_Dose_CherryPick_Activity_Set2. It counts as functional.
The nature of assay [7]: IOSE-T80 ovarian epithelial cell cytotoxicity, dose response, cytotoxicity control for PAX8 inhibitor project, plate reader, dry powder samples (AID 743045). In kind it is functional, cell-based.
The nature of assay [8]: NIH:OVCAR-3 ovarian cancer cell cytotoxicity, dose response, PAX8 inhibitor project, plate reader, dry powder samples (AID 743044). In kind it is functional, cell-based.
The nature of assay [9]: IGROV1 ovarian cancer cell cytotoxicity, dose response, PAX8 inhibitor project, plate reader, dry powder samples (AID 743043). It counts as functional, cell-based. To be noted: IGROV-1.
Assay [10] deals with Paired box protein Pax-8 (Homo sapiens, UniProt Q06710). The assay is described as follows: inhibitors of PAX8-driven TPO luciferase reporter, dose response, RMG-I cells, cherry-pick (AID 687027).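 Also: luciferase reporter driven by Pax8 target thyroperoxidase promoter measured by SteadyGlo luminescence.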 It counts as functional, cell-based.
The nature of assay [11]: cytotoxicity in OVCAR8 ovarian cancer cells, dose response, PAX8 project, cell-based, plate reader, dry powder samples (AID 743197). In kind it is functional. Conditions: OVCAR-8.
A short description of assay [12]: A Cell-Based Confirmatory Screen for Compounds that Inhibit VEEV, TC-83 (3). In kind it is functional.
Assay [13] can be described thus: T. cruzi growth inhibition in host cells, dose response, cell-based, plate reader, dry powder, set 2 (AID 652275). It counts as functional.

Protein Wnt-3a, sequence (P27467 whole entry): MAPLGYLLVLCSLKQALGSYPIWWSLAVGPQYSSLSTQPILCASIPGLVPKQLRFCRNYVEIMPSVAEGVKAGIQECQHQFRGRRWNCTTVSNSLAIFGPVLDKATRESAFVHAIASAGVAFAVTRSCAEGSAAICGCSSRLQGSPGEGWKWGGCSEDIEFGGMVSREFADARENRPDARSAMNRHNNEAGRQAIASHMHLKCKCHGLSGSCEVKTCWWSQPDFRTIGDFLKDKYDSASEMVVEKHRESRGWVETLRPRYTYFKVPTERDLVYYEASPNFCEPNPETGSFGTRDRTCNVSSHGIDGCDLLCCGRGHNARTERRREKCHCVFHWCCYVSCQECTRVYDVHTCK
Paired box protein Pax-8, sequence (Q06710 whole entry): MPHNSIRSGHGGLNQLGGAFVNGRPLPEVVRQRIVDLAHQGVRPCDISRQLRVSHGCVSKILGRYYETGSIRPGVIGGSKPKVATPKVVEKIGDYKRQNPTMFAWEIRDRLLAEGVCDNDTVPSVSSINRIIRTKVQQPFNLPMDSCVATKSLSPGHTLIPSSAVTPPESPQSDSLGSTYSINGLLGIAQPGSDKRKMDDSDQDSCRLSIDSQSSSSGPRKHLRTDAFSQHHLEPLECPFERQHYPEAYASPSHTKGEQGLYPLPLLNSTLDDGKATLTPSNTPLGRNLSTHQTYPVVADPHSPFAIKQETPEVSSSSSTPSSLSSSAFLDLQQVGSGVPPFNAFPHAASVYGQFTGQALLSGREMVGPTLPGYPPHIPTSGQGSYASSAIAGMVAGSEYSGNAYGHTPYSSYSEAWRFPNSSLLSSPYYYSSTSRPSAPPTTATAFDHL

Regarding `C[C@@H]1CN([C@H](C)CO)C(=O)c2cc(NC(=O)Cc3cn(C)c4ccccc34)ccc2O[C@H]1CN(C)S(=O)(=O)c1ccc(Cl)cc1`, the AC50 (as a rule, the concentration at which the activity in the assay is half-maximal) in assay [1] is 0.0155 µM (active); in assay [2], 0.0313 µM (active).
In the case of `O=C(Nc1cc(N2CCNCC2)ncn1)c1ccccc1`, in assay [3], the IC50 (commonly the midpoint of a concentration-inhibition curve) is > 21.8 µM (inactive).
On to `O=C(CC(=O)Nc1cccc(Cl)c1)NN=Cc1ccccc1`, for which, in [4], the IC50 is > 83.3 µM (inactive).
As to `CCC(=O)N1[C@@H]2Cn3c(cccc3=O)[C@H]1[C@@H](C(=O)NCc1ccccc1)[C@@H]2CO`, the AC50 in assay [5] and in assay [6] was 30.2 µM (active) in each case.
As for `C[C@H]1CCCCO[C@H](CN(C)C(=O)Nc2ccc(C(F)(F)F)cc2)[C@@H](C)CN([C@@H](C)CO)C(=O)c2cc(NS(=O)(=O)c3ccc(Cl)cc3)ccc2O1`, the AC50 was 51.5 µM (active) in [7]; 20.1 µM (active) in assay [8]; 47.6 µM (active) in [9]; 4.68 µM (active) in assay [10]; 37.2 µM (active) in assay [11].
For the compound `O=C(Cc1ccccc1)Nc1nc2c(s1)CCCC2`, the IC50 in assay [12] was 9.33 µM (active).
`CCC(=O)N1CC[C@@H]2[C@H]1c1cc(-c3ccccc3)ccc1N(C)[C@@H]2CO`: in assay [13], the AC50 was 8.49 µM (active).
